Test results: US9232796B2, “Herbicidal compositions comprising 4-amino-3-chloro-5-fluoro-6-(4-chloro-2-fluoro-3-methoxyphenyl) pyridine-2-carboxylic acid or a derivative thereof and acetyl-CoA carboxylase (ACCase) inhibitors” (DOW AGROSCIENCES LLC, priority 2012, dated 2016)
Several values for one entry are separate records, joined by “and”; a condition that tells them apart may be missing. Identical values can stand only once.

What was measured:
ECHCO = test: Example V (second) postemergence foliar-applied ternary mixtures, greenhouse, direct seeded rice weeds; assay type: in vivo, Echinochloa colona (L.) Link
Experimental: (§1) The treated plants and control plants were placed in a greenhouse as described above and watered by sub-irrigation to prevent wash-off of the test compounds. After approximately 3 weeks, the condition of the test plants as compared with that of the untreated plants was determined visually and scored on a scale of 0 to 100 percent where 0 corresponds to no injury or growth inhibition and 100 corresponds to complete kill.
(§2) Colby's equation was used to determine the herbicidal effects expected from the mixtures (Colby, S. R. 1967. Calculation of the synergistic and antagonistic response of herbicide combinations. Weeds 15:20-22.).
(§3) The following equation was used to calculate the expected activity of mixtures containing three active ingredients, A, B, and C: Expected=A+B+C−((A×B+A×C+B×C)/100)+(A×B×C/10000)

IPOHE = test: as above; assay type: in vivo, Ipomoea hederacea Jacq.
Text: All stock solutions and applications solutions were visually inspected for compound compatibility prior to application. Spray solutions were applied to the plant material with an overhead Mandel track sprayer equipped with a 8002E nozzles calibrated to deliver 187 L/ha over an application area of 0.503 m^2 at a spray height of 18 inches (46 cm) above average plant canopy height. Control plants were sprayed in the same manner with the solvent blank.
as §1, §2, §3

SCPMA = test: Example VI in-water applied ternary mixtures, greenhouse, transplanted paddy rice weeds; assay type: in vivo
ECHCG = test: Example V post-emergence field trials in direct-seeded rice; assay type: in vivo, Echinochloa crus-galli; settings: foliar, field trial Greece
Experimental: (§4) Multiple field trials were conducted under commercial grower field conditions in Tolima, Colombia; Thessaloniki, Greece; Bianze and Copiano, Italy; and Humphrey, Ark., USA. Trials sites were located in commercially grown fields of direct-seeded rice (Oryza sativa) using standard herbicide small plot research methodology. Plots varied from 2 to 3 meter (m)×5 to 8 m (width×length) with 4 replicates per treatment. The rice crop was grown using normal cultural practices for fertilization, seeding, watering, flooding and maintenance to ensure good growth of the crop and the weeds.
(§5) All treatments in the field trials were applied using a backpack compressed air/gas sprayer with flat fan nozzles (80° or 110°) calibrated to apply 187 to 300 L/ha spray volume at approximately 200-400 kPa nozzle pressure. Commercially available products of cyhalofop-butyl (Clincher 180EC, Clincher 200EC, and Clincher SF (285 gr ai/L EC)) were mixed in water at appropriate formulated product rates to achieve the desired rates based on a unit area of application (hectare) to achieve the desired rates as shown. Treatments were rate at 19 to 58 days after application (DAA) as compared to the untreated control plants. Visual weed control was scored on a scale of 0 to 100 percent where 0 corresponds to no injury and 100 corresponds to complete kill. […]

FIMMI = test: as above; assay type: in vivo, Fimbristylis miliacea; settings: foliar, field trial Tolima, Colombia
Experimental: as §4, §5

ECHSS = test: as above; assay type: in vivo, multiple Echinochloa species; settings: foliar, field trial Italy
Experimental: as §4, §5

SMILES	Visual Weed Control (%) - 21 DAA ECHCO Obs (ECHCO; 2.19 gae/ha) [%]	Visual Weed Control (%) - 21 DAA ECHCO Obs (ECHCO; 4.38 gae/ha) [%]	Visual Weed Control (%) - 21 DAA ECHCO Obs (ECHCO; 8 gae/ha) [%]	Visual Weed Control (%) - 21 DAA IPOHE Obs (IPOHE; 8 gae/ha) [%]	Visual Weed Control (%) - 21 DAA IPOHE Obs (IPOHE; 16 gae/ha) [%]	Visual Weed Control (%) - 21 DAA SCPMA Obs (SCPMA; Table 68, 4 gae/ha) [%]	Visual Weed Control (%) - 21 DAA SCPMA Obs (SCPMA; Table 68, 8 gae/ha) [%]	Visual Weed Control (%) - 21 DAA SCPMA Obs (SCPMA; Table 68, 16 gae/ha) [%]	Visual Weed Control (%) - 55-58 DAA ECHCG Obs (ECHCG; 24 gae/ha) [%]	Visual Weed Control (%) - 19 DAA FIMMI Obs (FIMMI; 24 gae/ha) [%]	Visual Weed Control (%) - 55-58 DAA ECHSS Obs (ECHSS; 24 gae/ha) [%]	Visual Weed Control (%) - 21 DAA ECHCO Obs (ECHCO; 35 gai/ha)	Visual Weed Control (%) - 21 DAA IPOHE Obs (IPOHE; Cyhalofop-butyl 35 gai/ha) [%]	Visual Weed Control (%) - 21 DAA SCPMA Obs (SCPMA; Table 68, cyhalofop-butyl 22.5 gai/ha) [%]	Visual Weed Control (%) - 21 DAA SCPMA Obs (SCPMA; Table 68, cyhalofop-butyl 45 gai/ha) [%]	Visual Weed Control (%) - 55-58 DAA ECHCG Obs (ECHCG; 300 gai/ha) [%]	Visual Weed Control (%) - 19 DAA FIMMI Obs (FIMMI; 190 gai/ha) [%]	Visual Weed Control (%) - 55-58 DAA ECHSS Obs (ECHSS; 300 gai/ha) [%]
COc1c(Cl)ccc(-c2nc(C(=O)OCc3ccccc3)c(Cl)c(N)c2F)c1F [Compound A Benzyl Ester, benzyl ester of 4-amino-3-chloro-5-fluoro-6-(4-chloro-2-fluoro-3-methoxy-phenyl)pyridine-2-carboxylic acid]	10	25	45	15	33	0	0	0	6	39	40							
CCCCOC(=O)[C@@H](C)Oc1ccc(Oc2ccc(C#N)cc2F)cc1 [Cyhalofop-butyl, butyl(2R)-2-[4-(4-cyano-2-fluorophenoxy)phenoxy]propanoate, reference compound]												37% and 40%	0	0	0	29	16	37
